Calls of active or inactive are those of the source. The calls are words filed in the database; no cut-off is given here.
Key:
MV4-11 [1] = test: Antiproliferative activity against human MV4-11 cells assessed as cell growth inhibition measured after 72 hrs by SRB Assay; conditions: MV4-11, 72 h
SUM149PT = test: Antiproliferative activity against human SUM149PT cells assessed as cell growth inhibition measured after 72 hrs by SRB Assay
A498 = test: Antiproliferative activity against human A498 cells assessed as cell growth inhibition measured after 72 hrs by SRB Assay; conditions: A498, 72 h
[2] = molecular target: T1, Protein cereblon/Wee1-like protein kinase (Homo sapiens, UniProt P30291+Q96SW2); test: PROTAC activity at CRBN/Wee1 in human MV4-11 cells assessed as residual Wee1 level at IC50 measured after 6 hrs by Western blot analysis (reference value: 100%); format: cell-based
T1 sequence (P30291 whole entry, looked up): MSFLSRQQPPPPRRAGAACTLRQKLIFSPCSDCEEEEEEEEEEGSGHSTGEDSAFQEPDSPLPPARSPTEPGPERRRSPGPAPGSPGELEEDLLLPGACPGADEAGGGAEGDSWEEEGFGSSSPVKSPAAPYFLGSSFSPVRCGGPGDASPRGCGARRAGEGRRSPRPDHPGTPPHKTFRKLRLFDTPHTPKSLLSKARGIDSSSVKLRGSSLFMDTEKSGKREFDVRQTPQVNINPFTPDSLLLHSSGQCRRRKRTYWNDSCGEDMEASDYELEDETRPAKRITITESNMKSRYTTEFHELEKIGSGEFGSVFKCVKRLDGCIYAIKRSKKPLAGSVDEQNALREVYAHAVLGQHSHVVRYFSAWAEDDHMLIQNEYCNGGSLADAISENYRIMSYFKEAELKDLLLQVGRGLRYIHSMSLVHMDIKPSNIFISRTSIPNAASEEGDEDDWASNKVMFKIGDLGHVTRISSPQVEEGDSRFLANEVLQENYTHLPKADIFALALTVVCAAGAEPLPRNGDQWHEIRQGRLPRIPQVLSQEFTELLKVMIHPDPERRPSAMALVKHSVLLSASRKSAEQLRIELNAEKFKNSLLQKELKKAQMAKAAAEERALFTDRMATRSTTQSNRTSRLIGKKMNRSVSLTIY
T1 sequence (Q96SW2 whole entry, looked up): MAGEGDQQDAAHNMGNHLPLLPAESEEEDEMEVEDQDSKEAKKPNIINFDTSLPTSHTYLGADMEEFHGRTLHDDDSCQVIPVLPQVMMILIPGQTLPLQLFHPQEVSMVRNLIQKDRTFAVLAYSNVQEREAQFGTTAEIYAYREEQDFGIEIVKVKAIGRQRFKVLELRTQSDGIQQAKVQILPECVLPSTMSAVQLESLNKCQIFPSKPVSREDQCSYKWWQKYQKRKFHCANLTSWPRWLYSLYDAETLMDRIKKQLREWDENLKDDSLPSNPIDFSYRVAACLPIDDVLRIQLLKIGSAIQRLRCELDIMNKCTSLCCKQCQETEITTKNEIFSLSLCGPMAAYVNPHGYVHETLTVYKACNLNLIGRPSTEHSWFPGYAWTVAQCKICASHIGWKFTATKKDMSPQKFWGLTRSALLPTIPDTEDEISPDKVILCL

MV4-11 [3] = test: Effect on PLK1 expression in human MV4-11 cells at IC50 measured after 6 hrs by Western blot analysis; format: functional, cell-based
[4] = molecular target: Serine/threonine-protein kinase PLK1 (Homo sapiens, UniProt P53350); test: Inhibition of PLK1 (unknown origin)
Serine/threonine-protein kinase PLK1, sequence (P53350 whole entry): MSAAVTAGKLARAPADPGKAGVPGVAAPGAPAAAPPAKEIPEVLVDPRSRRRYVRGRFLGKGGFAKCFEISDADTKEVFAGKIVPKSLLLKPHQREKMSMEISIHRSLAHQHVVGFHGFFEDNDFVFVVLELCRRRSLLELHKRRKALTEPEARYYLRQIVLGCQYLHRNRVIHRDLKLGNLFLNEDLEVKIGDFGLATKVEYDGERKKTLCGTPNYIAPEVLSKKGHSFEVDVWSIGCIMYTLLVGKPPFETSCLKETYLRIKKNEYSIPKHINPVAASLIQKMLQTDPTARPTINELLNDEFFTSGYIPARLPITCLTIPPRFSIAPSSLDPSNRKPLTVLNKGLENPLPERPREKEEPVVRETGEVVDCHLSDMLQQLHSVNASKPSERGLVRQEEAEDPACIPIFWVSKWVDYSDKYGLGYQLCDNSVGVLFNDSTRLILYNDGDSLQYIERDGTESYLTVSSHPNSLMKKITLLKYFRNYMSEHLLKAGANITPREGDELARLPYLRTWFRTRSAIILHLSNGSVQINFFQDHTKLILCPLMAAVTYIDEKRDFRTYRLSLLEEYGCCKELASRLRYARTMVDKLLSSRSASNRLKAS

[5] = molecular target: Wee1-like protein kinase (Homo sapiens) (UniProt P30291); test: Inhibition of Wee1 in human MV4-11 cells at IC50 measured after 6 hrs by Western blot analysis relative to control; format: cell-based
Wee1-like protein kinase (Homo sapiens), sequence (P30291 whole entry, looked up): as the sequence (P30291 whole entry, looked up) above

[6] = Effect on Wee1 level in human MV4-11 cells assessed as residual Wee1 level at 6.25 nM measured after 6 hrs by Immunoblotting method (reference value: 100%); format: functional
[7] = Effect on Wee1 level in human MV4-11 cells assessed as residual Wee1 level at 12.5 nM measured after 6 hrs by Immunoblotting method (reference value: 100%); format: functional
[8] = Effect on Wee1 level in human MV4-11 cells assessed as Wee1 level at 25 nM measured after 6 hrs by Immunoblotting method relative to control (reference value: 100%); format: functional
[9] = Effect on Wee1 level in human MV4-11 cells assessed as Wee1 level at 50 nM measured after 6 hrs by Immunoblotting method relative to control (reference value: 100%); format: functional
[10] = Effect on Wee1 level in human MV4-11 cells assessed as Wee1 level at 100 nM measured after 6 hrs by Immunoblotting method relative to control (reference value: 100%); format: functional
[11] = Half life in ICR mouse at 20 mg/kg, po measured upto 360 mins; format: ADME, organism-based; conditions: in vivo
[12] = Tmax in ICR mouse at 20 mg/kg, po measured upto 360 mins; format: ADME, organism-based; conditions: in vivo
[13] = Cmax in ICR mouse at 20 mg/kg, po measured upto 360 mins; format: ADME, organism-based; set-up: time < 360 min, dose 20 mg/kg, route po; conditions: in vivo
[14] = AUClast in ICR mouse at 20 mg/kg, po measured upto 360 mins; format: ADME, organism-based; set-up: time < 360 min, dose 20 mg/kg, route po; conditions: in vivo
[15] = Observed AUCinfinity ICR mouse at 20 mg/kg, po measured upto 360 mins; format: ADME, organism-based; set-up: time < 360 min, dose 20 mg/kg, route po; conditions: in vivo
[16] = Observed MRTinfinity ICR mouse at 20 mg/kg, po measured upto 360 mins; format: ADME, organism-based; conditions: in vivo
[17] = molecular target: T1, Protein cereblon/Wee1-like protein kinase; test: PROTAC activity at CRBN/Wee1 in human MV4-11 cells assessed as reduction in Wee1 level measured after 72 hrs by Western blot analysis; format: cell-based

Row | IC50 (MV4-11 [1]) | Activity [2] | SMILES | IC50 (SUM149PT) | IC50 (A498) | Activity (MV4-11 [3]) | other results
1 | 1110 nM | 49% | C=CCn1c(=O)c2cnc(Nc3ccc(N4CCN(CC(=O)NCCCCCCNc5cccc6c5C(=O)N(C5CCC(=O)NC5=O)C6=O)CC4)cc3)nc2n1-c1cccc(C(C)(C)O)n1 (configuration not stated) | 2810 nM | 6650 nM | inactive | 
2 | 2000 nM | 22% | C=CCn1c(=O)c2cnc(Nc3ccc(N4CCN(CC(=O)NCCCCC(=O)NCCNc5cccc6c5C(=O)N(C5CCC(=O)NC5=O)C6=O)CC4)cc3)nc2n1-c1cccc(C(C)(C)O)n1 (configuration not stated) | > 10000 nM | > 10000 nM | inactive | 
3 | 809 nM | 32% | C=CCn1c(=O)c2cnc(Nc3ccc(N4CCN(CC(=O)NCCCCCNc5cccc6c5C(=O)N(C5CCC(=O)NC5=O)C6=O)CC4)cc3)nc2n1-c1cccc(C(C)(C)O)n1 (configuration not stated) | 2130 nM | 6870 nM | inactive | 
4 | 226 nM | 21% | C=CCn1c(=O)c2cnc(Nc3ccc(N4CCN(CC(=O)NCCCCNc5cccc6c5C(=O)N(C5CCC(=O)NC5=O)C6=O)CC4)cc3)nc2n1-c1cccc(C(C)(C)O)n1 (configuration not stated) | 1590 nM | 5380 nM | inactive | 
5 | 215 nM | 37% | C=CCn1c(=O)c2cnc(Nc3ccc(N4CCN(CC(=O)NCCCNc5cccc6c5C(=O)N(C5CCC(=O)NC5=O)C6=O)CC4)cc3)nc2n1-c1cccc(C(C)(C)O)n1 (configuration not stated) | 1550 nM | 7740 nM | inactive | 

The remaining lines, values behind:

Row | SMILES | IC50 (MV4-11 [1]) | Activity [2] | IC50 (SUM149PT) | IC50 (A498) | Activity (MV4-11 [3]) | other results
6 | C=CCn1c(=O)c2cnc(Nc3ccc(N4CCN(CC(=O)NCCCCC(=O)NCc5ccc(COc6cccc7c6C(=O)N(C6CCC(=O)NC6=O)C7=O)cc5)CC4)cc3)nc2n1-c1cccc(C(C)(C)O)n1 (configuration not stated) | 7000 nM | 45% | > 10000 nM | > 10000 nM | inactive | 
7 | C=CCn1c(=O)c2cnc(Nc3ccc(N4CCN(CC(=O)NCCOCCOCCOCCOCCOCCNc5cccc6c5C(=O)N(C5CCC(=O)NC5=O)C6=O)CC4)cc3)nc2n1-c1cccc(C(C)(C)O)n1 (configuration not stated) | 2150 nM | 26% | > 10000 nM | 10000 nM | inactive | IC50 [4]: > 10000 nM
8 | C=CCn1c(=O)c2cnc(Nc3ccc(N4CCN(CC(=O)NCCCCC(=O)NCc5ccc(CNc6cccc7c6C(=O)N(C6CCC(=O)NC6=O)C7=O)cc5)CC4)cc3)nc2n1-c1cccc(C(C)(C)O)n1 (configuration not stated) | 6000 nM | 27% | > 10000 nM | > 10000 nM | inactive | IC50 [4]: > 10000 nM
9 | C=CCn1c(=O)c2cnc(Nc3ccc(N4CCN(CC(=O)NCCOCCOCCOCCOCCOCCOCCOCCNc5cccc6c5C(=O)N(C5CCC(=O)NC5=O)C6=O)CC4)cc3)nc2n1-c1cccc(C(C)(C)O)n1 (configuration not stated) | 716 nM | 21% | > 10000 nM | > 10000 nM | inactive | IC50 [4]: > 10000 nM
10 | C=CCn1c(=O)c2cnc(Nc3ccc(N4CCN(CC(=O)NCCOCCOCCNc5cccc6c5C(=O)N(C5CCC(=O)NC5=O)C6=O)CC4)cc3)nc2n1-c1cccc(C(C)(C)O)n1 (configuration not stated) | 1000 nM | 21% | 6040 nM | > 10000 nM | inactive | IC50 [4]: > 10000 nM
11 | C=CCn1c(=O)c2cnc(Nc3ccc(N4CCN(CC(=O)NCCCCC(=O)NCCOc5cccc6c5C(=O)N(C5CCC(=O)NC5=O)C6=O)CC4)cc3)nc2n1-c1cccc(C(C)(C)O)n1 (configuration not stated) | 5000 nM | 23% | > 10000 nM | > 10000 nM | inactive | 
12 | C=CCn1c(=O)c2cnc(Nc3ccc(N4CCN(CCCCCNc5cccc6c5C(=O)N(C5CCC(=O)NC5=O)C6=O)CC4)cc3)nc2n1-c1cccc(C(C)(C)O)n1 (configuration not stated) | 182 nM | 24% | 1260 nM | 1310 nM | inactive | 
13 | C=CCn1c(=O)c2cnc(Nc3ccc(N4CCN(CC(=O)NCCOCCOCCOCCOCCNc5cccc6c5C(=O)N(C5CCC(=O)NC5=O)C6=O)CC4)cc3)nc2n1-c1cccc(C(C)(C)O)n1 (configuration not stated) | 408 nM | 49% | 3140 nM | 5830 nM | inactive | 
14 | C=CCn1c(=O)c2cnc(Nc3ccc(N4CCN(C)CC4)cc3)nc2n1-c1cccc(C(C)(C)O)n1 [ADAVOSERTIB] | 133 nM |  | 536 nM | 216 nM | inactive | IC50 [4]: 268 nM; inhibition [5]: 94%; Activity [6]: 90%; Activity [7]: 98%; Activity [8]: 90%; Activity [9]: 70%; Activity [10]: 120%; half-life [11]: 7.15 h; Tmax [12]: 0.25 h; Cmax [13]: 681 ng/mL; AUC(0-t) at 6 h [14]: 915 ng·h/mL; AUC(0-inf) [15]: 934 ng·h/mL; MRT inf [16]: 2.84 h; Activity [17]: inactive
15 | C=CCn1c(=O)c2cnc(Nc3ccc(N4CCN(CC(=O)NCCOCCOCCOCCNc5cccc6c5C(=O)N(C5CCC(=O)NC5=O)C6=O)CC4)cc3)nc2n1-c1cccc(C(C)(C)O)n1 (configuration not stated) | 2200 nM | 37% | > 10000 nM | > 10000 nM | inactive | 
16 | C=CCn1c(=O)c2cnc(Nc3ccc(N4CCN(CC(=O)NCCOCCOCCOCCOCCOCCOCCOCCOCCNc5cccc6c5C(=O)N(C5CCC(=O)NC5=O)C6=O)CC4)cc3)nc2n1-c1cccc(C(C)(C)O)n1 (configuration not stated) | 523 nM | 28% | 8850 nM | > 10000 nM | inactive | 
17 | C=CCn1c(=O)c2cnc(Nc3ccc(N4CCN(CC(=O)NCCOCCOCCOCCOCCOCCOCCNc5cccc6c5C(=O)N(C5CCC(=O)NC5=O)C6=O)CC4)cc3)nc2n1-c1cccc(C(C)(C)O)n1 (configuration not stated) | 1130 nM | 33% | > 10000 nM | > 10000 nM | inactive | 

Source: ChEMBL document CHEMBL5331061, “Design, synthesis, and biological evaluation of Wee1 kinase degraders” (Eur J Med Chem, 2022)
